Three molecules from ChEMBL document CHEMBL3244141, “Synthesis and analgesic activity of some long-acting piperidinospiro derivatives of methadone” (1978) can be followed below.

The species named for experiment [1] is Rattus norvegicus. Description: animal or person. The experiment is classed as functional. Conditions: Sprague-Dawley, Tail, po, 24 h.
Experiment [2] relates to Rattus norvegicus. Description: Analgesic activity in po dosed Sprague-Dawley rat assessed as inhibition of warm-water tail withdrawal reflex by measuring dose required to produce withdrawal latency >4 seconds measured every hour of 24 hrs relative to methadone. The experiment is classed as functional.

Take `CCC(=O)C(CCN1CCC2(CCCc3ccccc32)CC1)(c1ccccc1)c1ccccc1.O=C(O)C(=O)O`: the median effective dose (ED50) (commonly the dose at which the effect has come halfway, by size or by number of responders) in the experiment listed under Rattus norvegicus [1] is 0.07 mg/kg. The Ratio in the experiment on Rattus norvegicus [2] is 212.
For `CCC(O)C(CCN1CCC2(CCCc3ccccc32)CC1)(c1ccccc1)c1ccccc1` (racemic), in that order: 0.14 mg/kg and 106.
The molecule `CCC(OC(C)=O)C(CCN1CCC2(CCCc3ccccc32)CC1)(c1ccccc1)c1ccccc1.O=S(=O)(O)O` (stereo unspecified) had a median effective dose (ED50) in the experiment listed under Rattus norvegicus [1] of 0.14 mg/kg. The Ratio in the experiment on Rattus norvegicus [2] came to 106.
